Assay results from patent US20260125382A1, “COMPOUNDS FOR INHIBITING OR DEGRADING CDK2 AND/OR CDK9 AND MEDICINAL USE THEREOF” (KOREA RESEARCH INSTITUTE OF CHEMICAL TECHNOLOGY, priority 2022, published 2026).

How the values were obtained:
[1] = molecular target: T1, CDK9 (Homo sapiens, UniProt P50750); experiment: CDK protein degradation activity (Western blotting), CDK9; format: cell-based; conditions: MDA-MB-231 cells, 16 hours, Western blot
T1 construct: endogenous in cells; host or cells: MDA-MB-231
How it was run: (§1)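 CDK2 and CDK9 protein levels measured by Western blot with densitometry, using tubulin as loading reference. Cells were MDA-MB-231, exposed for 16 h to 100 nM, 1 μM or 10 μM compound or to DMSO.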

[2] = molecular target: T2, CDK2 (Homo sapiens, UniProt P24941); experiment: CDK protein degradation activity (Western blotting), CDK2; format: cell-based; conditions: MDA-MB-231 cells, 16 hours, Western blot
T2 construct: endogenous in cells; host or cells: MDA-MB-231
How it was run: as §1

T1 sequence (P50750 whole entry): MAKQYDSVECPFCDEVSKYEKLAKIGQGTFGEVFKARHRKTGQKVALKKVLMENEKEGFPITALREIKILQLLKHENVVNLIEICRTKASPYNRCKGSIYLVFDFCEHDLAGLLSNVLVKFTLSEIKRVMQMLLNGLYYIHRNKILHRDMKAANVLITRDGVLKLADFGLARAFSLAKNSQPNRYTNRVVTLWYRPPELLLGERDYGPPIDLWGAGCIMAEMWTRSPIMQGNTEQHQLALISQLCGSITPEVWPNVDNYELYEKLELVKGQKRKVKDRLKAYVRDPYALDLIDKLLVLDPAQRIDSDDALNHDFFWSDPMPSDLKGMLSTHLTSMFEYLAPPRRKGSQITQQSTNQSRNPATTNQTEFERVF

Enzyme degradation CDK9 (% remaining) @ 0.1 μM [1]	Enzyme degradation CDK9 (% remaining) @ 1 μM [1]	Enzyme degradation CDK9 (% remaining) @ 10 μM [1]	Enzyme degradation CDK2 (% remaining) @ 0.1 μM [2]	Enzyme degradation CDK2 (% remaining) @ 1 μM [2]	Enzyme degradation CDK2 (% remaining) @ 10 μM [2]	SMILES
10%	0%	0%	30%	20%	20%	O=C1CC[C@@H](c2cccc(OCC(=O)N3CC(CN4CCC5(CC4)CC(N4CCN(c6ccc(Nc7ncnc8c7ncn8[C@H]7C[C@@H](NC(=O)Cc8ccccc8)C7)cc6)CC4)C5)C3)c2)C(=O)N1 [Compound 276, N-((1s,3s)-3-(6-((4-(4-(7-((1-(2-(3-(2,6-dioxopiperidin-3-yl)phenoxy)acetyl)azetidin-3-yl)methyl)-7-azaspiro[3.5]nonan-2-yl)piperazin-1-yl)phenyl)amino)-9H-purin-9-yl)cyclobutyl)-2-phenylacetamide]
0/0/0%	0/0/0%	0/0/0%	30/30/30%	30/30/30%	30/30/30%	O=C1CCC(N2C(=O)c3cccc(NCC(=O)N4CC(N5CCC6(CC5)CC(N5CCN(c7ccc(Nc8ncnc9c8ncn9[C@H]8C[C@@H](NC(=O)Cc9ccccc9)C8)cc7)CC5)C6)C4)c3C2=O)C(=O)N1 (stereo partly drawn) [Compound 277, N-((1s,3s)-3-(6-((4-(4-(7-(1-((2-(2,6-dioxopiperidin-3-yl)-1,3-dioxoisoindolin-4-yl)glycyl)azetidin-3-yl)-7-azaspiro[3.5]nonan-2-yl)piperazin-1-yl)phenyl)amino)-9H-purin-9-yl)cyclobutyl)-2-phenylacetamide]
10%	0%	0%	50/50/50%	50/50/50%	50/50/50%	O=C1CC[C@H](N2C(=O)c3ccc(NCC(=O)N4CC(N5CCC6(CC5)CC(N5CCN(c7ccc(Nc8ncnc9c8ncn9C8CC(NC(=O)Cc9ccccc9)C8)cc7)CC5)C6)C4)cc3C2=O)C(=O)N1 (stereo partly drawn) [Compound 278, N-((1s,3s)-3-(6-((4-(4-(7-(1-((2-(2,6-dioxopiperidin-3-yl)-1,3-dioxoisoindolin-5-yl)glycyl)azetidin-3-yl)-7-azaspiro[3.5]nonan-2-yl)piperazin-1-yl)phenyl)amino)-9H-purin-9-yl)cyclobutyl)-2-phenylacetamide]
40%	10%	10%	50%	40%	40%	O=C1CC[C@H](N2C(=O)c3cccc(N4CC(CN5CCC6(CC5)CC(N5CCN(c7ccc(Nc8ncnc9c8ncn9[C@H]8C[C@@H](NC(=O)Cc9ccccc9)C8)cc7)CC5)C6)C4)c3C2=O)C(=O)N1 [Compound 279, N-((1s,3s)-3-(6-((4-(4-(7-((1-(2-(2,6-dioxopiperidin-3-yl)-1,3-dioxoisoindolin-4-yl)azetidin-3-yl)methyl)-7-azaspiro[3.5]nonan-2-yl)piperazin-1-yl)phenyl)amino)-9H-purin-9-yl)cyclobutyl)-2-phenylacetamide]
50%	10%	10%	50%	30%	30%	COc1ccc(C(=O)N2CC(CN3CCC4(CC3)CC(N3CCN(c5ccc(Nc6ncnc7c6ncn7[C@H]6C[C@@H](NC(=O)Cc7ccccc7)C6)cc5)CC3)C4)C2)cc1N1CCC(=O)NC1=O [Compound 280, N-((1s,3s)-3-(6-((4-(4-(7-((1-(3-(2,4-dioxotetrahydropyrimidin-1(2H)-yl)-4-methoxybenzoyl)azetidin-3-yl)methyl)-7-azaspiro[3.5]nonan-2-yl)piperazin-1-yl)phenyl)amino)-9H-purin-9-yl)cyclobutyl)-2-phenylacetamide]
0/0/0%	0/0/0%	0/0/0%	30%	50%	50%	O=C1CC[C@@H](c2ccc(OCC(=O)N3CCC(CN4CCC(c5ccc(Nc6ncnc7c6ncn7C6CC(NC(=O)Cc7ccccc7)C6)cc5)CC4)CC3)cc2)C(=O)N1 (stereo partly drawn) [Compound 281, N-((1s,3s)-3-(6-((4-(1-((1-(2-(4-(2,6-dioxopiperidin-3-yl)phenoxy)acetyl)piperidin-4-yl)methyl)piperidin-4-yl)phenyl)amino)-9H-purin-9-yl)cyclobutyl)-2-phenylacetamide]
0/0/0%	0/0/0%	0/0/0%	10%	20%	20%	O=C1CC[C@@H](c2cccc(OCC(=O)N3CCC(CN4CCC(c5ccc(Nc6ncnc7c6ncn7C6CC(NC(=O)Cc7ccccc7)C6)cc5)CC4)CC3)c2)C(=O)N1 (stereo partly drawn) [Compound 282, N-((1s,3s)-3-(6-((4-(1-((1-(2-(3-(2,6-dioxopiperidin-3-yl)phenoxy)acetyl)piperidin-4-yl)methyl)piperidin-4-yl)phenyl)amino)-9H-purin-9-yl)cyclobutyl)-2-phenylacetamide]
0/0/0%	0/0/0%	0/0/0%	40%	50%	60%	O=C1CC[C@@H](c2ccc(OCC(=O)N3CCC4(CC3)CC(N3CCC(c5ccc(Nc6ncnc7c6ncn7C6CC(NC(=O)Cc7ccccc7)C6)cc5)CC3)C4)cc2)C(=O)N1 (stereo partly drawn) [Compound 284, N-((1s,3s)-3-(6-((4-(1-(7-(2-(4-(2,6-dioxopiperidin-3-yl)phenoxy)acetyl)-7-azaspiro[3.5]nonan-2-yl)piperidin-4-yl)phenyl)amino)-9H-purin-9-yl)cyclobutyl)-2-phenylacetamide]
0/0/0%	0/0/0%	0/0/0%	10%	20%	20%	O=C1CC[C@@H](c2cccc(OCC(=O)N3CCC4(CC3)CC(N3CCC(c5ccc(Nc6ncnc7c6ncn7C6CC(NC(=O)Cc7ccccc7)C6)cc5)CC3)C4)c2)C(=O)N1 (stereo partly drawn) [Compound 285, N-((1s,3s)-3-(6-((4-(1-(7-(2-(3-(2,6-dioxopiperidin-3-yl)phenoxy)acetyl)-7-azaspiro[3.5]nonan-2-yl)piperidin-4-yl)phenyl)amino)-9H-purin-9-yl)cyclobutyl)-2-phenylacetamide]
40%	30%	30%	40%	60%	70%	COc1ccc(C(=O)N2CCC3(CC2)CC(N2CCC(c4ccc(Nc5ncnc6c5ncn6[C@H]5C[C@@H](NC(=O)Cc6ccccc6)C5)cc4)CC2)C3)cc1N1CCC(=O)NC1=O [Compound 286, N-((1s,3s)-3-(6-((4-(1-(7-(3-(2,4-dioxotetrahydropyrimidin-1(2H)-yl)-4-methoxybenzoyl)-7-azaspiro[3.5]nonan-2-yl)piperidin-4-yl)phenyl)amino)-9H-purin-9-yl)cyclobutyl)-2-phenylacetamide]
0/0/0%	0/0/0%	0/0/0%	0/0/0%	0/0/0%	0/0/0%	O=C1CC[C@H](N2C(=O)c3cccc(OCC(=O)N4CCC(CN5CCC(c6ccc(Nc7ncnc8c7ncn8[C@H]7C[C@@H](NC(=O)Cc8ccccc8)C7)cc6)CC5)CC4)c3C2=O)C(=O)N1 [Compound 287, N-((1s,3s)-3-(6-((4-(1-((1-(2-((2-(2,6-dioxopiperidin-3-yl)-1,3-dioxoisoindolin-4-yl)oxy)acetyl)piperidin-4-yl)methyl)piperidin-4-yl)phenyl)amino)-9H-purin-9-yl)cyclobutyl)-2-phenylacetamide]
0/0/0%	0/0/0%	0/0/0%	10%	20%	20%	O=C1CCC(N2C(=O)c3cccc(NCC(=O)N4CCC(CN5CCC(c6ccc(Nc7ncnc8c7ncn8[C@H]7C[C@@H](NC(=O)Cc8ccccc8)C7)cc6)CC5)CC4)c3C2=O)C(=O)N1 (stereo partly drawn) [Compound 288, N-((1s,3s)-3-(6-((4-(1-((1-((2-(2,6-dioxopiperidin-3-yl)-1,3-dioxoisoindolin-4-yl)glycyl)piperidin-4-yl)methyl)piperidin-4-yl)phenyl)amino)-9H-purin-9-yl)cyclobutyl)-2-phenylacetamide]
30%	0%	0%	40%	60%	70%	O=C1CC[C@H](N2C(=O)c3ccc(OCC(=O)N4CCC(CN5CCC(c6ccc(Nc7ncnc8c7ncn8C7CC(NC(=O)Cc8ccccc8)C7)cc6)CC5)CC4)cc3C2=O)C(=O)N1 (stereo partly drawn) [Compound 289, N-((1s,3s)-3-(6-((4-(1-((1-(2-((2-(2,6-dioxopiperidin-3-yl)-1,3-dioxoisoindolin-5-yl)oxy)acetyl)piperidin-4-yl)methyl)piperidin-4-yl)phenyl)amino)-9H-purin-9-yl)cyclobutyl)-2-phenylacetamide]
